Data set [1] is described as follows: Storage stability of crystalline form L2 (temperature/RH conditions, HPLC purity). It is filed as physicochemical.
Data set [2] in a line: Polymorphic stability of crystalline forms over a period of time. It is filed as physicochemical.
The conditions of data set [3]: neat crystalline dihydrochloride salts N1 and N2, screening studies; cited from earlier work.

Structures can show the parent of a compound that is named as a salt.

Regarding `COC(=O)N[C@H](C(=O)N1CCC[C@H]1c1nc(-c2ccc(-c3ccc(-c4c[nH]c([C@@H]5CCCN5C(=O)[C@@H](NC(=O)OC)C(C)C)n4)cc3)cc2)c[nH]1)C(C)C` [form L2, N,N′-[[1,1′-biphenyl]-4,4′-diylbis[1H-imidazole-5,2-diyl-(2S)-2,1-pyrrolidinediyl[(1S)-1-(1-methylethyl)-2-oxo-2,1-ethanediyl]]]bis-carbamic acid, C,C′-dimethyl ester, hydrochloride (1:2)], the stability result in data set [1] (5±3° C.), in data set [1] (25±2° C./60±5% RH) and in data set [1] (40±2° C./75±5% RH) was “stable” in each case.

For the compound `COC(=O)N[C@H](C(=O)N1CCC[C@H]1c1nc(-c2ccc(-c3ccc(-c4c[nH]c([C@@H]5CCCN5C(=O)[C@@H](NC(=O)OC)C(C)C)n4)cc3)cc2)c[nH]1)C(C)C` [form L1, N,N′-[[1,1′-biphenyl]-4,4′-diylbis[1H-imidazole-5,2-diyl-(2S)-2,1-pyrrolidinediyl[(1S)-1-(1-methylethyl)-2-oxo-2,1-ethanediyl]]]bis-carbamic acid, C,C′-dimethyl ester, hydrochloride (1:2)], the “polymorphic stability (conversion to any other polymorphic form)” value in data set [2] is “stable and do not get converted to any other polymorphic form”.

For the compound `COC(=O)N[C@H](C(=O)N1CCC[C@H]1c1nc(-c2ccc(-c3ccc(-c4c[nH]c([C@@H]5CCCN5C(=O)[C@@H](NC(=O)OC)C(C)C)n4)cc3)cc2)c[nH]1)C(C)C` [form N-2, N,N′-[[1,1′-biphenyl]-4,4′-diylbis[1H-imidazole-5,2-diyl-(2S)-2,1-pyrrolidinediyl[(1S)-1-(1-methylethyl)-2-oxo-2,1-ethanediyl]]]bis-carbamic acid, C,C′-dimethyl ester, hydrochloride (1:2)], in data set [3], the “thermodynamic stability among polymorphs” value is reported as “thermodynamically most stable polymorph”.

The values above are taken from patent US20190256498A1, “CRYSTALLINE FORMS OF DACLATASVIR DIHYDROCHLORIDE” (LUPIN LIMITED, priority 2016, published 2019).
